Measured values taken from PMC10654576, “Isothermal chemical denaturation assay for monitoring protein stability and inhibitor interactions” (Scientific Reports, 2023).
Entries after “also recorded” stand apart in the source; their conditions may differ.

What was measured:
KRAS^G12V = biological target: T1, KRAS^G12V (Homo sapiens, UniProt P01116, G12V); experiment: FRET-Probe isothermal chemical denaturation (ICD) assay, KRAS^G12V; format: binding; conditions: for S/B ratio, denaturation with and without GTP: 1 µM GTP
T1 construct: Monomer (2-188); host or cells: E. coli
Method: (§1) All isothermal chemical denaturation (ICD) assays were conducted in triplicates at RT using a single-step protocol with 25 µL final volume. Sample protein and ligand were added in 5 µL in a buffer (10 mM HEPES (pH 7.5), 10 mM NaCl, (v/v) 0.01% Brij 30) without denaturant. FRET-Probe (0.5 nM) was added to the assay buffer supplemented with chemical denaturant, urea (0–5 M), ethanol (0–30%) or 1-propanol (0–50%). Additionally, 0.2 mM EDTA was used in combination with alcohols.
(§2) In all ICD protein assays, time-resolved Förster resonance energy transfer (TR-FRET) signal was monitored kinetically at multiple time points during 150 min incubation. In all assays with protein binding ligands, 30 min preincubation prior denaturant addition was performed. In acid induced denaturation assay, GTP (0–2 µM) and NADH (0–50 µM) were titrated with KRAS^G12V and MDH, respectively. 1-propanol (30–50%) ICD assays were also performed for MDH in the presence of NADH (0–50 µM) and (20%) for KRAS^G12V using GTP (0–10 µM). […] Additionally, urea was tested with 1 µM GTP with KRAS^G12V.

[1] = biological target: T2, malate dehydrogenase (MDH) (Sus scrofa, UniProt P00346); experiment: FRET-Probe thermal shift assay (TSA), MDH with NADH; format: binding; conditions: for Tm of MDH with NADH: 25 nM MDH
T2 construct: purchased Sigma-Aldrich (St. Louis, MO, USA)
T2 sequence (P00346 25-338): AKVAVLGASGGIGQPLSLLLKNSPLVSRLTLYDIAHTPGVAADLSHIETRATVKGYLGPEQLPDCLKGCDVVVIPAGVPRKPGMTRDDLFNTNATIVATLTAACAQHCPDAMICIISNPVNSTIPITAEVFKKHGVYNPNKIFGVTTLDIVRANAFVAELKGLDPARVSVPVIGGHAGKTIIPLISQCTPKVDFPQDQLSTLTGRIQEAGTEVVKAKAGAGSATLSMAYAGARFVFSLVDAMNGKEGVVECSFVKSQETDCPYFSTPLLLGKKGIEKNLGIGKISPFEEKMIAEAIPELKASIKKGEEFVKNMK
Method: All FRET-Probe TSA were conducted in triplicates using a single-step protocol, by adding the sample protein in 5 µL and FRET-Probe (0.5 nM) in 20 µL volumes. All concentrations are reported in a 25 µL final volume. Assays were performed in an assay buffer containing 10 mM HEPES (pH 7.5) supplemented with 0.001% (v/v) Triton X-100.

MDH [2] = biological target: T3, MDH (Sus scrofa, UniProt P00346); experiment: FRET-Probe isothermal chemical denaturation (ICD) assay, MDH; format: binding; conditions: 25 nM MDH
T3 construct: purchased Sigma-Aldrich (St. Louis, MO, USA)
T3 sequence (P00346 25-338): T2 sequence (P00346 25-338)
Method: as §1, §2

MDH [3] = biological target: MDH; set-up: method as in PMID 225321; conditions: MDH/NADH interaction; cited from earlier work

Nc1ncnc2c1ncn2[C@@H]1O[C@H](COP(=O)(O)OP(=O)(O)OP(=O)(O)O)[C@@H](O)[C@H]1O [ATP]
TR-FRET signal level compared with protein alone (KRAS^G12V; 50 nM KRAS^G12V, pH 5, 2 and 10 µM ATP): no change of signal level; also recorded: in the same range

Nc1nc2c(ncn2[C@@H]2O[C@H](COP(=O)(O)OP(=O)(O)OP(=O)(O)O)[C@@H](O)[C@H]2O)c(=O)[nH]1 [GTP, guanosine-5'-triphosphate]
S/B ratio, denaturation with and without GTP (KRAS^G12V; 50 nM KRAS^G12V, 1 M urea, 60 min): 15.1 | S/B ratio, denaturation with and without GTP (KRAS^G12V; 50 nM KRAS^G12V, 2 M urea, 60 min): 20.3 | EC50 (KRAS^G12V; 50 nM KRAS^G12V, pH 5 denaturation buffer, 30 min): 4.5 ± 1.9 nM | EC50 (KRAS^G12V; 50 nM KRAS^G12V, pH 5 denaturation buffer, 60 min): 2.6 ± 0.7 nM | EC50 (KRAS^G12V; 50 nM KRAS^G12V, pH 5 denaturation buffer, 90 min): 3.5 ± 0.1 nM | EC50 (KRAS^G12V; 50 nM KRAS^G12V, pH 5 denaturation buffer, 120 min): 4.6 ± 0.3 nM | EC50 (KRAS^G12V; KRAS^G12V, 20% 1-propanol, 30 min): 3.6 ± 0.5 nM | EC50 (KRAS^G12V; KRAS^G12V, 20% 1-propanol, 60 min): 3.8 ± 0.4 nM | EC50 (KRAS^G12V; KRAS^G12V, 20% 1-propanol, 90 min): 5.2 ± 1.2 nM | EC50 (KRAS^G12V; KRAS^G12V, 20% 1-propanol, 120 min): 5.2 ± 0.7 nM

NC(=O)C1=CN([C@@H]2O[C@H](COP(=O)(O)OP(=O)(O)OC[C@H]3O[C@@H](n4cnc5c(N)ncnc54)[C@H](O)[C@@H]3O)[C@@H](O)[C@H]2O)C=CC1 [NADH, reduced nicotinamide adenine dinucleotide]
Tm of MDH with NADH ([1]; 5 µM NADH): 47.9 ± 0.6 °C | Tm of MDH with NADH ([1]; 50 µM NADH): 51.7 ± 0.2 °C | Δ Tm of MDH ([1]; 5 µM NADH): 1.2 °C | Δ Tm of MDH ([1]; 50 µM NADH): 5.0 °C | EC50 (MDH [2]; 30–50% 1-propanol, 60 min incubation): 29000 to 38000 nM | EC50 (MDH [2]; pH 5 denaturation buffer, RT, 90 min incubation): 4700 ± 800 nM | ligand-induced stabilization of MDH (MDH [2]; pH 5, 5 and 50 µM NADH, RT): clear ligand-induced stabilization | Kd (MDH [3]): 3800 nM
